Laboratory results published in patent US8952036B2, “Benzoic acid derivative MDM2 inhibitor for the treatment of cancer” (Amgen Inc., priority 2013, dated 2015).
“Also recorded” adds a separate entry of the source. Like-named read-outs stand apart in the source and are kept apart here.

Key:
[1] = system: Cryopreserved human hepatocytes; experiment: Human Hepatocyte Intrinsic Clearance Assay; settings: for human hepatocyte clearance (comparison): comparison between Examples, in words
Protocol: (§4) Cryopreserved human hepatocytes pooled from 20 donors (Celsis-In Vitro Technologies, Baltimore, Md.) were used to determine the intrinsic clearance of the Example compounds. […] At 0, 5, 15, 30, 60 and 90 minutes, aliquots of incubation mixture were removed from the incubator, and quenched with acetonitrile containing 0.1% (v/v) formic acid and internal standard (7-hydroxy-4-trifluoromethylcoumarin). Samples were then centrifuged at 5700 rpm (6100 g) at 4° C. for 10 minutes. Supernatants were transferred to a sample plate, mixed with equal volume of water containing 0.1% formic acid, and analyzed using LC-MS/MS.
(§5) The LC-MS/MS system for sample analysis consisted of a reverse phase UHPLC (Shimadzu Model Nexera LC-30AD, Shimadzu Scientific Instruments, Inc, Columbia, Md.) interfaced with an API4000 triple quadruple mass spectrometer operating in negative ion mode (Applied Biosystems, Inc., Foster City, Calif.). Chromatographic separation was achieved using a Phenomenex Kinetex Luna C18 column (Phenomenex, Torrance, Calif.) (2×50 mm, 2.6 μm) maintained at 55° C. with a mobile phase flow rate of 1.2 mL/min. The mobile phase consisted of 0.1% formic acid in water (A) and 0.1% formic acid in acetonitrile (B).

[2] = Human Hepatocyte Intrinsic Clearance Assay; settings: human, cryopreserved human hepatocytes pooled from 20 donors
Protocol: as §4, §5

CYP3A4 = settings: human, 48 h; for CYP3A4 mRNA induction: hepatocytes
Text: (§1) Human Hepatocyte CYP1A2, CYP2B6, and CYP3A4 Induction Assay
(§2) Materials. […] Insulin-transferrin-selenium supplement (ITS), penicillin-streptomycin-L-glutamine supplement (PSG), fetal bovine serum (FBS), phosphate-buffered saline (PBS), cryopreserved hepatocyte recovery medium (CHRM), and three individual-donor lots of cryopreserved adult human hepatocytes were obtained from Life Technologies (Grand Island, N.Y.). Collagen I-precoated 24-well plates and hydroxybupropion were acquired from Becton Dickinson Labware (Bedford, Mass.). Branched DNA (b-DNA) probe sets for human CYP1A2, CYP2B6, CYP3A4, and 18S rRNA and the Panomics Discovery XL Kit were purchased from Affymetrix Inc. (Santa Clara, Calif.).
In vitro Methods. […] Individual lots were plated in collagen-coated 24-well plates with approximately 0.38×10^6 cells/well. […] After the attachment period, the plating medium and unattached cells were removed by aspiration and 37° C. HMM was added to each well (0.5 mL/well), and the cells were incubated overnight. On Day 2, the medium was aspirated and fresh 37° C. HMM was reapplied to the cells for an overnight acclimation period. […] The Example compounds to be tested were prepared in DMSO stock solutions resulting in final incubation concentrations of 0.1% DMSO. Example compound treatment was maintained for a total of 48 hours. On Day 5, the medium was aspirated, and the hepatocytes were gently washed one time with KHB (37° C., pH 7.4). The KHB was removed, and a second application of KHB was administered (0.5 mL/well). The hepatocytes were placed back into the incubator and allowed to acclimate to the KHB for 10 minutes. P450 enzyme activities were subsequently determined by the addition of marker substrates phenacetin (100 μM, CYP1A2 probe substrate, 30-minute incubation) bupropion hydrochloride (100 μM, CYP2B6 probe substrate, 20-minute incubation), and testosterone (200 μM, CYP3A4 probe substrate, 14-minute incubation) which were dissolved in KHB (37° C., pH 7.4, 0.5 mL/well). After the substrate incubation periods, the buffers were collected and stored at −80° C. until analyzed. Hepatocytes used for mRNA analysis were washed once in PBS (0.5 mL/well, 25° C., containing calcium and magnesium) and protocol-prepared b-DNA lysis buffer was added to each well (0.5 mL/well). The hepatocytes were lysed by gently pipetting the lysis buffer up and down five times, and the plates were stored at −80° C. until analysis.
P450 mRNA Analysis. CYP1A2, CYP2B6, and CYP3A4 mRNA content was determined with branched DNA (b-DNA) signal amplification technology using the Panomics Discover XL Kit with assays performed according to the manufacturer's instructions. b-DNA probe sets containing capture extender, label extender, and blocking probes for human CYP1A2, CYP2B6, CYP3A4, and 18S rRNA were purchased from Affymetrix Inc. Plate washing steps were performed on an Elx405 automated microplate washer (BioTek Instruments Inc., Winooski, Vt.), and luminescence was analyzed on a Luminoskan Ascent microplate luminometer (Thermo Lab Systems, Helsinki, Finland). P450 mRNA levels were normalized to the mRNA levels of the housekeeping gene 18S rRNA.
(§3) Data Reporting. For each P450 isoform for mRNA analysis, fold increases over vehicle control (with vehicle control set to 1.0) were calculated for positive controls and each treatment group for the Example compounds.

CYP1A2, CYP2B6 or CYP3A4 = experiment: Human Hepatocyte CYP1A2, CYP2B6, and CYP3A4 Induction Assay (summary); format: in vitro ADME; settings: human hepatocytes, mRNA
Text: as §1, §2
In vitro Methods. […] Individual lots were plated in collagen-coated 24-well plates with approximately 0.38×10^6 cells/well. […] After the attachment period, the plating medium and unattached cells were removed by aspiration and 37° C. HMM was added to each well (0.5 mL/well), and the cells were incubated overnight. On Day 2, the medium was aspirated and fresh 37° C. HMM was reapplied to the cells for an overnight acclimation period. […] The Example compounds to be tested were prepared in DMSO stock solutions resulting in final incubation concentrations of 0.1% DMSO. Example compound treatment was maintained for a total of 48 hours. […] P450 enzyme activities were subsequently determined by the addition of marker substrates phenacetin (100 μM, CYP1A2 probe substrate, 30-minute incubation) bupropion hydrochloride (100 μM, CYP2B6 probe substrate, 20-minute incubation), and testosterone (200 μM, CYP3A4 probe substrate, 14-minute incubation) which were dissolved in KHB (37° C., pH 7.4, 0.5 mL/well). After the substrate incubation periods, the buffers were collected and stored at −80° C. until analyzed. […]
as §3

| Structure (SMILES) | human hepatocyte clearance (comparison) [1] | hepatocyte CLint at 500 nM [2] | mRNA % of Positive Control (Donor One) (CYP3A4; 0.1 μM) | mRNA % of Positive Control (Donor Three) (CYP3A4; 0.1 μM) | mRNA % of Positive Control (Donor Two) (CYP3A4; 0.1 μM) | mRNA % of Positive Control (Donor One) (CYP3A4; 1 μM) | mRNA % of Positive Control (Donor Three) (CYP3A4; 1 μM) | mRNA % of Positive Control (Donor Two) (CYP3A4; 1 μM) | mRNA % of Positive Control (Donor One) (CYP3A4; 10 μM) | mRNA % of Positive Control (Donor Three) (CYP3A4; 10 μM) | mRNA % of Positive Control (Donor Two) (CYP3A4; 10 μM) | CYP3A4 mRNA induction (CYP3A4) | Induction Assay Summary (CYP1A2, CYP2B6 or CYP3A4) | mRNA % of Positive Control (one donor) (CYP3A4; 0.1 μM) | mRNA % of Positive Control (one donor) (CYP3A4; 1 μM) | mRNA % of Positive Control (one donor) (CYP3A4; 10 μM) | Human hepatocyte CLint assay (μL/min/10^6 cells) ([1]; 500 nM, pooled human hepatocytes 1 million cells/mL) |
| --- | --- | --- | --- | --- | --- | --- | --- | --- | --- | --- | --- | --- | --- | --- | --- | --- | --- |
| CC(C)(C)S(=O)(=O)C[C@H](C1CC1)N1C(=O)[C@@](C)(CC(N)=O)C[C@H](c2cccc(Cl)c2)[C@H]1c1ccc(Cl)cc1 [Example 2, 2-((3R,5R,6S)-1-((S)-2-(tert-Butylsulfonyl)-1-cyclopropylethyl)-5-(3-chlorophenyl)-6-(4-chlorophenyl)-3-methyl-2-oxopiperidin-3-yl)acetamide] | hepatocyte clearance increases | 26 µL/min/1e6 cells |  |  |  |  |  |  |  |  |  |  |  |  |  |  |  |
| CC(C)(C)S(=O)(=O)C[C@H](C1CC1)N1C(=O)[C@@](C)(CC(=O)Nc2ccccc2)C[C@H](c2cccc(Cl)c2)[C@H]1c1ccc(Cl)cc1 [Example 3, 2-((3R,5R,6S)-1-((S)-2-(tert-Butylsulfonyl)-1-cyclopropylethyl)-5-(3-chlorophenyl)-6-(4-chlorophenyl)-3-methyl-2-oxopiperidin-3-yl)-N-phenylacetamide] | further increases | 28 µL/min/1e6 cells | 1.71% | 0.15% | 4.95% | 17.15% | 3.21% | 10.38% | 37.77% | 37.60% | 45.78% | exhibit CYP3A4 mRNA induction | CYP3A4 |  |  |  |  |
| CC(C)(C)S(=O)(=O)C[C@H](C1CC1)N1C(=O)[C@@](C)(CC(=O)O)C[C@H](c2cccc(Cl)c2)[C@H]1c1ccc(Cl)c(F)c1 [Example 4, 2-((3R,5R,6S)-1-((S)-2-(tert-Butylsulfonyl)-1-cyclopropylethyl)-6-(4-chloro-3-fluorophenyl)-5-(3-chlorophenyl)-3-methyl-2-oxopiperidin-3-yl)acetic acid] | higher human hepatocyte clearance than the compound of Example 1 | 26 µL/min/1e6 cells | 1.62% | 0.42% | 2.30% | 2.96% | 0.47% | 7.29% | 10.14% | 3.07% | 12.51% |  | None |  |  |  |  |
| COc1cc(NC(=O)C[C@@]2(C)C[C@H](c3cccc(Cl)c3)[C@@H](c3ccc(Cl)c(F)c3)N([C@H](CS(=O)(=O)C(C)(C)C)C3CC3)C2=O)ccc1C(=O)O [Example 5, 4-(2-((3R,5R,6S)-1-((S)-2-(tert-Butylsulfonyl)-1-cyclopropylethyl)-6-(4-chloro-3-fluorophenyl)-5-(3-chlorophenyl)-3-methyl-2-oxopiperidin-3-yl)acetamido)-2-methoxybenzoic acid] | lower human hepatocyte clearance than either of the compounds of Examples 1 or 4; also recorded: lower human hepatocyte clearance than any of Examples 1 to 4 | 1.45 µL/min/1e6 cells |  |  |  |  |  |  |  |  |  | does not show CYP3A4 mRNA induction | None | −1.49% | 0.34% | 0.98% | 1.45 μL/min/10^6 cells |
